Measurements taken from patent US9012655B2, “Antimicrobial/adjuvant compounds and methods” (Denouamed, Inc., priority 2011, dated 2015).
Converted amounts (≈) assume the structure as drawn.

Tests used:
Test in all cases: MIC panel of challenge pathogens (CLSI)
Assay type in all cases: cell-based
Bacillus cereus NCTC6349 = details: Bacillus cereus NCTC6349
Procedure: (§1) The inocula for each bacterial strain were prepared by picking 5-10 distinct colonies from the culture plates and suspending them in the appropriate broth as per Clinical and Laboratory Standards Institute (CLSI) guidelines M07-A8, M24-A or M11-A7 as appropriate. The inoculum was resuspended by vigorous shaking on a vortex mixer for 15 s. The turbidity was then adjusted to McFarland standard 0.5 ([…]). The inoculum was further diluted in the appropriate media for MIC tests to give a final inoculum in each well of 2-8×10^5 CFU/ml. MICs were tested in the appropriate broth in accordance with the appropriate CLSI guidelines.
(§2) A stock solution of each compound was prepared at a concentration of 1.28 g/L in DMSO. The stock was further diluted in the appropriate media to give a top starting concentration of 128 mg/L in the assay. 100 μL of the appropriate media, as per CLSI guidelines, was dispensed into each well in columns 2-12. 200 μL of the each compound solution (at 256 mg/L) was dispensed into each well in column 1. 100 μL aliquots were pipetted from column 1 wells and dispensed into column 2 with a multichannel pipette (±2% coefficient of variation) thus diluting two-fold. 100 μL samples were then pipetted from column 2 wells and dispensed into column 3. The process was repeated through to column 10. The final 100 μL of diluted drug from column 10 was then discarded. Row 11 acted as a positive control (no compound, but organisms added), Row 12 acted as a negative control (no compound, and no organisms added).
(§3) 100 μL of the appropriate inoculum suspension in the appropriate media, as per CLSI guidelines, was added to the appropriate wells. […] All plates were incubated in the dark under aerobic or anaerobic conditions at 30-37° C. for 24-48 hours, according to the appropriate CLSI guideline. Plates were read visually 24-48 hours post inoculation. Endpoints of 100% inhibition were determined (CLSI interpretation endpoints following visual examination).
(§4) MIC50, MIC80, and 100% inhibition results are reported below in μg/mL in the following Tables, indicating each compound tested against a given species and strain: […]

[1] = tested on: Enterococcus faecalis ATCC29212; details: Enterococcus faecalis ATCC29212
Procedure: as §1, §2, §3, §4

[2] = tested on: Enterococcus faecalis ATCC51299; details: Enterococcus faecalis ATCC51299
Procedure: as §1, §2, §3, §4

[3] = tested on: Enterococcus faecium ATCC700221; details: Enterococcus faecium ATCC700221
Procedure: as §1, §2, §3, §4

[4] = tested on: Staphylococcus aureus ATCC43300; details: Staphylococcus aureus ATCC43300
Procedure: as §1, §2, §3, §4

[5] = tested on: Staphylococcus aureus AUR131 007035; details: AUR131007035, Staphylococcus aureus AUR131 007035
Procedure: as §1, §2, §3, §4

[6] = tested on: Staphylococcus aureus AUR58 7005; details: AUR587005, Staphylococcus aureus AUR58 7005
Procedure: as §1, §2, §3, §4

[7] = tested on: Staphylococcus aureus AUR59 7005; details: AUR597005, Staphylococcus aureus AUR59 7005
Procedure: as §1, §2, §3, §4

[8] = tested on: Staphylococcus aureus AUR60 7005; details: AUR607005, Staphylococcus aureus AUR60 7005
Procedure: as §1, §2, §3, §4

[9] = tested on: Staphylococcus aureus EUP MRSA002; details: EUPMRSA002, Staphylococcus aureus EUP MRSA002
Procedure: as §1, §2, §3, §4

[10] = tested on: Staphylococcus aureus EUP MRSA004; details: EUPMRSA004, Staphylococcus aureus EUP MRSA004
Procedure: as §1, §2, §3, §4

[11] = tested on: Staphylococcus aureus EUP SAU040; details: EUPSAU040, Staphylococcus aureus EUP SAU040
Procedure: as §1, §2, §3, §4

[12] = tested on: Staphylococcus aureus NRS1 (ATCC700699); details: Staphylococcus aureus NRS1 (ATCC700699)
Procedure: as §1, §2, §3, §4

[13] = tested on: Staphylococcus aureus NRS2 (ATCC700698); details: Staphylococcus aureus NRS2 (ATCC700698)
Procedure: as §1, §2, §3, §4

[14] = tested on: Staphylococcus aureus NRS382; details: Staphylococcus aureus NRS382
Procedure: as §1, §2, §3, §4

[15] = tested on: Staphylococcus aureus NRS383; details: Staphylococcus aureus NRS383
Procedure: as §1, §2, §3, §4

[16] = tested on: Staphylococcus aureus NRS384; details: Staphylococcus aureus NRS384
Procedure: as §1, §2, §3, §4

[17] = tested on: Staphylococcus epidermidis NRS122; details: Staphylococcus epidermidis NRS122
Procedure: as §1, §2, §3, §4

[18] = tested on: Staphylococcus epidermidis NRS7; details: Staphylococcus epidermidis NRS7
Procedure: as §1, §2, §3, §4

`Fc1ccc(-c2cc(-c3nnn[nH]3)sc2-c2ccc(F)c3ccccc23)c2ccccc12` [DNM0537, 5-(4,5-Bis(4-fluoronaphthalen-1-yl)thiophen-2-yl)-1H-tetrazole] showed an MIC (Bacillus cereus NCTC6349; read-out: 100% inhibition) of no more than 0.25 µg/mL, an MIC50 (Bacillus cereus NCTC6349; read-out: MIC50 (50%)) of no more than 0.25 µg/mL and an MIC80 (Bacillus cereus NCTC6349; read-out: MIC80 (80%)) of no more than 0.25 µg/mL. It also gave an MIC ([1]; read-out: 100% inhibition) of 1 µg/mL (≈ 2.27 µM), an MIC50 ([1]; read-out: MIC50 (50%)) of 0.5 µg/mL (≈ 1.14 µM) and an MIC80 ([1]; read-out: MIC80 (80%)) of 1 µg/mL (≈ 2.27 µM). It also gave an MIC ([2]; read-out: 100% inhibition) of 0.5 µg/mL (≈ 1.14 µM), an MIC50 ([2]; read-out: MIC50 (50%)) of 0.5 µg/mL (≈ 1.14 µM) and an MIC80 ([2]; read-out: MIC80 (80%)) of 0.5 µg/mL (≈ 1.14 µM). It also gave an MIC ([3]; read-out: 100% inhibition) of 0.5 µg/mL (≈ 1.14 µM), an MIC50 ([3]; read-out: MIC50 (50%)) of 0.5 µg/mL (≈ 1.14 µM) and an MIC80 ([3]; read-out: MIC80 (80%)) of 0.5 µg/mL (≈ 1.14 µM). For the same compound, the MIC ([4]; read-out: 100% inhibition) was 1 µg/mL (≈ 2.27 µM), the MIC50 ([4]; read-out: MIC50 (50%)) was 0.5 µg/mL (≈ 1.14 µM) and the MIC80 ([4]; read-out: MIC80 (80%)) was 1 µg/mL (≈ 2.27 µM). The MIC ([5]; read-out: 100% inhibition) was no more than 0.25 µg/mL, the MIC50 ([5]; read-out: MIC50 (50%)) was no more than 0.25 µg/mL and the MIC80 ([5]; read-out: MIC80 (80%)) was no more than 0.25 µg/mL. For the same compound, the MIC ([6]; read-out: 100% inhibition) was no more than 0.25 µg/mL, the MIC50 ([6]; read-out: MIC50 (50%)) was no more than 0.25 µg/mL and the MIC80 ([6]; read-out: MIC80 (80%)) was no more than 0.25 µg/mL. For the same compound, the MIC ([7]; read-out: 100% inhibition) was no more than 0.25 µg/mL, the MIC50 ([7]; read-out: MIC50 (50%)) was no more than 0.25 µg/mL and the MIC80 ([7]; read-out: MIC80 (80%)) was no more than 0.25 µg/mL. For the same compound, the MIC ([8]; read-out: 100% inhibition) was no more than 0.25 µg/mL, the MIC50 ([8]; read-out: MIC50 (50%)) was no more than 0.25 µg/mL and the MIC80 ([8]; read-out: MIC80 (80%)) was no more than 0.25 µg/mL. The MIC ([9]; read-out: 100% inhibition) was 1 µg/mL (≈ 2.27 µM), the MIC50 ([9]; read-out: MIC50 (50%)) was 1 µg/mL (≈ 2.27 µM) and the MIC80 ([9]; read-out: MIC80 (80%)) was 1 µg/mL (≈ 2.27 µM). It also gave an MIC ([10]; read-out: 100% inhibition) of 1 µg/mL (≈ 2.27 µM), an MIC50 ([10]; read-out: MIC50 (50%)) of 0.5 µg/mL (≈ 1.14 µM) and an MIC80 ([10]; read-out: MIC80 (80%)) of 1 µg/mL (≈ 2.27 µM). For the same compound, the MIC ([11]; read-out: 100% inhibition) was 1 µg/mL (≈ 2.27 µM), the MIC50 ([11]; read-out: MIC50 (50%)) was 1 µg/mL (≈ 2.27 µM) and the MIC80 ([11]; read-out: MIC80 (80%)) was 1 µg/mL (≈ 2.27 µM). For the same compound, the MIC ([12]; read-out: 100% inhibition) was no more than 0.25 µg/mL, the MIC50 ([12]; read-out: MIC50 (50%)) was no more than 0.25 µg/mL and the MIC80 ([12]; read-out: MIC80 (80%)) was no more than 0.25 µg/mL. The MIC ([13]; read-out: 100% inhibition) was 1 µg/mL (≈ 2.27 µM), the MIC50 ([13]; read-out: MIC50 (50%)) was 1 µg/mL (≈ 2.27 µM) and the MIC80 ([13]; read-out: MIC80 (80%)) was 1 µg/mL (≈ 2.27 µM). For the same compound, the MIC ([14]; read-out: 100% inhibition) was no more than 0.25 µg/mL, the MIC50 ([14]; read-out: MIC50 (50%)) was no more than 0.25 µg/mL and the MIC80 ([14]; read-out: MIC80 (80%)) was no more than 0.25 µg/mL. The MIC ([15]; read-out: 100% inhibition) was no more than 0.25 µg/mL, the MIC50 ([15]; read-out: MIC50 (50%)) was no more than 0.25 µg/mL and the MIC80 ([15]; read-out: MIC80 (80%)) was no more than 0.25 µg/mL. For the same compound, the MIC ([16]; read-out: 100% inhibition) was no more than 0.25 µg/mL, the MIC50 ([16]; read-out: MIC50 (50%)) was no more than 0.25 µg/mL and the MIC80 ([16]; read-out: MIC80 (80%)) was no more than 0.25 µg/mL. For the same compound, the MIC ([17]; read-out: 100% inhibition) was 4 µg/mL (≈ 9.08 µM), the MIC50 ([17]; read-out: MIC50 (50%)) was 4 µg/mL (≈ 9.08 µM) and the MIC80 ([17]; read-out: MIC80 (80%)) was 4 µg/mL (≈ 9.08 µM). It also gave an MIC ([18]; read-out: 100% inhibition) of 1 µg/mL (≈ 2.27 µM), an MIC50 ([18]; read-out: MIC50 (50%)) of 0.5 µg/mL (≈ 1.14 µM) and an MIC80 ([18]; read-out: MIC80 (80%)) of 1 µg/mL (≈ 2.27 µM).
